Test results from patent US12060347B2 (BRISTOL-MYERS SQUIBB COMPANY, priority 2016, dated 2024).

Target: T1, human PAR4 (Homo sapiens, UniProt Q96RI0)
T1 construct: expressed in transfected cells; host or cells: HEK293 PAR4 Clone 1.2A (BMS Arctic ID 383940)
T1 sequence (Q96RI0 18-385): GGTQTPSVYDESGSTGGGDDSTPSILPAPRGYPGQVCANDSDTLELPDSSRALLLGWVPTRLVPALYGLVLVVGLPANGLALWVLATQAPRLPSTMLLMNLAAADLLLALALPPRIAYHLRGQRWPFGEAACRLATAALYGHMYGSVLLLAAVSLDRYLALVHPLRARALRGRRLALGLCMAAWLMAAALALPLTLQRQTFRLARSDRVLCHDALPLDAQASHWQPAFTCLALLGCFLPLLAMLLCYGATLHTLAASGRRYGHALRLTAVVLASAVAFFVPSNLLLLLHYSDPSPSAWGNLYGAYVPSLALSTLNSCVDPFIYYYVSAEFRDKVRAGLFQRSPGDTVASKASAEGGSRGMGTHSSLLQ
Assay: PAR4 FLIPR assay: antagonism of agonist-peptide-induced calcium mobilization in PAR4-expressing HEK293 cells
Type: cell-based
Settings: H-Ala-Phe(4-F)-[…]NH2-induced intracellular calcium mobilization, 11-point curves

Row | IC50 | Compound
1 | 1.3 nM | COc1cnc2c(-c3nc4c(Cl)c(F)c(OC[C@@H](C)OC(=O)Nc5cccnc5)cc4s3)cc(C)cc2n1 [Example 372, (R)-1-((4-chloro-5-fluoro-2-(2-methoxy-7-methylquinoxalin-5-yl)benzo[d]thiazol-6-yl)oxy)propan-2-yl pyridin-3-ylcarbamate]
2 | 0.9 nM | COc1cnc2c(-c3nc4c(Cl)c(F)c(OC[C@@H](C)OC(=O)Nc5ccc6[nH]c(=O)oc6c5)cc4s3)cc(C)cc2n1 [Example 373, (R)-1-((4-chloro-5-fluoro-2-(2-methoxy-7-methylquinoxalin-5-yl)benzo[d]thiazol-6-yl)oxy)propan-2-yl (2-oxo-2,3-dihydrobenzo[d]oxazol-6-yl)carbamate]
3 | 110 nM | COc1cnc2c(-c3nc4c(Cl)c(F)c(OC[C@@H](C)OC(=O)Nc5ccc(C(F)(F)F)nc5)cc4s3)cc(C)cc2n1 [Example 374, (R)-1-((4-chloro-5-fluoro-2-(2-methoxy-7-methylquinoxalin-5-yl)benzo[d]thiazol-6-yl)oxy)propan-2-yl (6-(trifluoromethyl)pyridin-3-yl)carbamate]
4 | 1.7 nM | COc1cnc2c(-c3nc4c(Cl)c(F)c(OC[C@@H](C)OC(=O)Nc5cnc6c(c5)CC=N6)cc4s3)cc(C)cc2n1 [Example 375, (R)-1-((4-chloro-5-fluoro-2-(2-methoxy-7-methylquinoxalin-5-yl)benzo[d]thiazol-6-yl)oxy)propan-2-yl 3H-pyrrolo [2,3-b]pyridin-5-yl carbamate]
5 | 72 nM | COc1cnc2c(-c3nc4c(Cl)c(F)c(OC[C@@H](C)OC(=O)Nc5cnccc5C)cc4s3)cc(C)cc2n1 [Example 376, (R)-1-((4-chloro-5-fluoro-2-(2-methoxy-7-methylquinoxalin-5-yl)benzo[d]thiazol-6-yl)oxy)propan-2-yl (4-methylpyridin-3-yl) carbamate]
6 | 4.3 nM | COc1cnc2c(-c3nc4c(Cl)c(F)c(OC[C@@H](C)OC(=O)Nc5ccc(C)nc5)cc4s3)cc(C)cc2n1 [Example 377, (R)-1-((4-chloro-5-fluoro-2-(2-methoxy-7-methylquinoxalin-5-yl)benzo[d]thiazol-6-yl)oxy)propan-2-yl (6-methylpyridin-3-yl)carbamate]
7 | 8.7 nM | COC(=O)c1cc(NC(=O)OCCOc2cc3sc(-c4cc(C)cc5nc(OC)cnc45)nc3c(Cl)c2F)cn1C [Example 378, methyl 4-(((2-((4-chloro-5-fluoro-2-(2-methoxy-7-methylquinoxalin-5-yl)benzo[d]thiazol-6-yl)oxy)ethoxy)carbonyl)amino)-1-methyl-1H-pyrrole-2-carboxylate]
8 | 2.3 nM | COc1cnc2c(-c3nc4cc(F)c(OCC(COCc5ccccc5)OC(=O)Nc5cccnc5)cc4s3)cc(C)cc2n1 (stereo not drawn) [Example 380, 1-(benzyloxy)-3-((5-fluoro-2-(2-methoxy-7-methylquinoxalin-5-yl)benzo[d]thiazol-6-yl)oxy)propan-2-yl pyridin-3-ylcarbamate]
9 | 590 nM | COc1cnc2c(-c3nc4c(Cl)c(F)c(OCCOC(=O)Nc5csc(Cl)n5)cc4s3)cc(C)cc2n1 [Example 383, 2-((4-chloro-5-fluoro-2-(2-methoxy-7-methylquinoxalin-5-yl)benzo[d]thiazol-6-yl)oxy)ethyl (2-chlorothiazol-4-yl)carbamate]

Second part, the compound before the results:

Row | Compound | IC50
10 | COc1cnc2c(-c3nc4cc(F)c(OC[C@@H](C)OC(=O)Nc5cnc6[nH]ccc6c5)cc4s3)cc(C)cc2n1 [Example 354, (R)-1-((5-fluoro-2-(2-methoxy-7-methylquinoxalin-5-yl)benzo[d]thiazol-6-yl)oxy)propan-2-yl 1H-pyrrolo[2,3-b]pyridin-5-ylcarbamate] | 1.2 nM
11 | COc1cnc2c(-c3nc4cc(F)c(OC[C@@H](C)OC(=O)Nc5ccc6[nH]ccc6c5)cc4s3)cc(C)cc2n1 [Example 355, (R)-1-((5-fluoro-2-(2-methoxy-7-methylquinoxalin-5-yl)benzo[d]thiazol-6-yl)oxy)propan-2-yl 1H-indol-5-ylcarbamate] | 17 nM
12 | COc1cnc2c(-c3nc4cc(F)c(OC[C@@H](C)OC(=O)Nc5ccc6c(ccn6C)c5)cc4s3)cc(C)cc2n1 [Example 356, (R)-1-((5-fluoro-2-(2-methoxy-7-methylquinoxalin-5-yl)benzo[d]thiazol-6-yl)oxy)propan-2-yl (1-methyl-1H-indol-5-yl)carbamate] | 2.1 nM
13 | COc1cnc2c(-c3nc4cc(F)c(OC[C@@H](C)OC(=O)Nc5cnc(C)nc5)cc4s3)cc(C)cc2n1 [Example 357, (R)-1-((5-fluoro-2-(2-methoxy-7-methylquinoxalin-5-yl)benzo[d]thiazol-6-yl)oxy)propan-2-yl (2-methylpyrimidin-5-yl)carbamate] | 6.7 nM
14 | COc1cnc2c(-c3nc4c(Cl)c(F)c(OCCOC(N)=O)cc4s3)cc(C)cc2n1 [Example 358, 2-((4-chloro-5-fluoro-2-(2-methoxy-7-methylquinoxalin-5-yl)benzo[d]thiazol-6-yl)oxy) ethyl carbamate] | 270 nM
15 | COc1cnc2c(-c3nc4c(Cl)c(F)c(OCCOC(=O)Nc5cnc6[nH]ccc6c5)cc4s3)cc(C)cc2n1 [Example 359, 2-((4-chloro-5-fluoro-2-(2-methoxy-7-methylquinoxalin-5-yl)benzo[d]thiazol-6-yl)oxy)ethyl 1H-pyrrolo[2,3-b]pyridin-5-ylcarbamate] | 170 nM
16 | COc1cnc2c(-c3nc4c(Cl)c(F)c(OCCOC(=O)Nc5ccc6[nH]ccc6c5)cc4s3)cc(C)cc2n1 [Example 360, 2-((4-chloro-5-fluoro-2-(2-methoxy-7-methylquinoxalin-5-yl)benzo[d]thiazol-6-yl)oxy)ethyl 1H-indol-5-ylcarbamate] | 160 nM
17 | COC(=O)c1ccc(NC(=O)OCCOc2cc3sc(-c4cc(C)cc5nc(OC)cnc45)nc3c(Cl)c2F)cn1 [Example 361, methyl 5-(((2-((4-chloro-5-fluoro-2-(2-methoxy-7-methylquinoxalin-5-yl)benzo[d]thiazol-6-yl)oxy)ethoxy)carbonyl)amino)picolinate] | 5.5 nM
18 | COc1cnc2c(-c3nc4c(Cl)c(F)c(OCCOC(=O)Nc5cnc(C)nc5)cc4s3)cc(C)cc2n1 [Example 362, 2-((4-chloro-5-fluoro-2-(2-methoxy-7-methylquinoxalin-5-yl)benzo[d]thiazol-6-yl)oxy)ethyl (2-methylpyrimidin-5-yl)carbamate] | 4.1 nM
19 | COc1cnc2c(-c3nc4c(Cl)c(F)c(OCCOC(=O)Nc5nsc(OC)n5)cc4s3)cc(C)cc2n1 [Example 363, 2-((4-chloro-5-fluoro-2-(2-methoxy-7-methylquinoxalin-5-yl)benzo[d]thiazol-6-yl)oxy)ethyl (5-methoxy-1,2,4-thiadiazol-3-yl)carbamate] | 1700 nM
20 | COc1cnc2c(-c3nc4c(Cl)c(F)c(OCCOC(=O)Nc5cn[nH]c5)cc4s3)cc(C)cc2n1 [Example 364, 2-((4-chloro-5-fluoro-2-(2-methoxy-7-methylquinoxalin-5-yl)benzo[d]thiazol-6-yl)oxy)ethyl 1H-pyrazol-4-ylcarbamate] | 19 nM
21 | COc1cnc2c(-c3nc4c(Cl)c(F)c(OCCOC(=O)Nc5cnn(C)c5)cc4s3)cc(C)cc2n1 [Example 365, 2-((4-chloro-5-fluoro-2-(2-methoxy-7-methylquinoxalin-5-yl)benzo[d]thiazol-6-yl)oxy) ethyl (1-methyl-1H-pyrazol-4-yl)carbamate] | 2.5 nM
22 | COc1cnc2c(-c3nc4c(Cl)c(F)c(OCCOC(=O)Nc5nnc(C)o5)cc4s3)cc(C)cc2n1 [Example 366, 2-((4-chloro-5-fluoro-2-(2-methoxy-7-methylquinoxalin-5-yl)benzo[d]thiazol-6-yl)oxy)ethyl (5-methyl-1,3,4-oxadiazol-2-yl) carbamate] | 550 nM
23 | COc1cnc2c(-c3nc4c(Cl)c(F)c(OCCOC(=O)Nc5cnc6c(c5)cc(C)n6C)cc4s3)cc(C)cc2n1 [Example 367, 2-((4-chloro-5-fluoro-2-(2-methoxy-7-methylquinoxalin-5-yl)benzo[d]thiazol-6-yl)oxy)ethyl (1,2-dimethyl-1H-pyrrolo[2,3-b]pyridin-5-yl)carbamate] | 12 nM
24 | COc1cnc2c(-c3nc4c(Cl)c(F)c(OCCOC(=O)NCc5ccncc5)cc4s3)cc(C)cc2n1 [Example 369, 2-((4-chloro-5-fluoro-2-(2-methoxy-7-methylquinoxalin-5-yl)benzo[d]thiazol-6-yl)oxy)ethyl (pyridin-4-ylmethyl)carbamate] | 13 nM
25 | COc1cnc2c(-c3nc4c(Cl)c(F)c(OC[C@@H](C)OC(=O)Nc5nnc(C)s5)cc4s3)cc(C)cc2n1 [Example 370, (R)-1-((4-chloro-5-fluoro-2-(2-methoxy-7-methylquinoxalin-5-yl)benzo[d]thiazol-6-yl)oxy)propan-2-yl (5-methyl-1,3,4-thiadiazol-2-yl)carbamate] | 5.8 nM
26 | COc1cnc2c(-c3nc4c(Cl)c(F)c(OC[C@@H](C)OC(=O)Nc5ccc(C#N)nc5)cc4s3)cc(C)cc2n1 [Example 371, (R)-1-((4-chloro-5-fluoro-2-(2-methoxy-7-methylquinoxalin-5-yl)benzo[d]thiazol-6-yl)oxy)propan-2-yl (6-cyanopyridin-3-yl)carbamate] | 1.8 nM
27 | COc1cnc2c(-c3nc4cc(F)c(OCC(COCC(C)C)OC(=O)Nc5cccnc5)cc4s3)cc(C)cc2n1 (stereo not drawn) [Example 379, 1-((5-fluoro-2-(2-methoxy-7-methylquinoxalin-5-yl)benzo[d]thiazol-6-yl)oxy)-3-isobutoxypropan-2-yl pyridin-3-ylcarbamate] | 1.7 nM
